# Patent US7530461B2, “Esters of 5-aminolevulinic acid as photosensitizing agents in photochemotherapy” (PhotoCure ASA, priority 1995, dated 2009)
# Experiments:
# [1] = system: normal skin of nu/nu nude mice; assay: Protoporphyrin IX production in the skin of mice by CCD microscopy of biopsies; format: in vivo; details: 20% w/w cream
# Experimental: A commercial oil-in-water cream containing (20% w/w) one of the chemicals (free ALA, ALA methylester, ALA ethylester and ALA propylester) (see Example 1) was topically applied to the normal skin of nu/nu nude mice for 0.5, 1, 3 and 6 hours, then biopsied and evaluated by means of microscopic fluorescence photometry incorporating a light-sensitive thermol-electrically cooled charge coupled device (CCD) camera. […] The fluorescence intensity of PpIX in the skin increased with the time of the application and the maximum amounts of the fluorescence were seen about 6 hours (the latest time point studied) after the application in all cases.
# normal skin of nude mice [2] = assay: Fluorescence microscopy of mouse skin biopsies after topical application; format: in vivo; details: 1 h after topical application
# Experimental: Treatment procedure. One of the creams was painted on the normal skin at right flank region of each mouse, and covered by a semi-permeable dressing (3M, St Paul, Minn., USA) for various time intervals (from 0.25 to 24 h) before fluorescence measurements in situ or being biopsied for microscopic fluorescence imaging. About 0.2 g cream was applied to an approximate 2.25 cm^2 area of the skin. In the case of i.p. injection the mice were given ALA or its methylester at a dose of 150 mg/kg. At least three mice were used for each condition.
# Fluorescence microscopy. After the creams were topically applied to the skin of mice for various times (as indicated above), the skin was biopsied and the frozen tissue sections were cut with a cryostat to a thickness of 8 μm. The fluorescence microscopy was carried out using an Axioplan microscope (Zeiss, Germany) with a 100 W mercury lamp. The fluorescence images were recorded by a light-sensitive thermoelectrically cooled charge coupled device (CCD) camera (resolution: 385×578 pixels with a dynamic range of 16 bits per pixel)(Astromed CCD 3200, Cambridge, UK) and hard copies on a video printer (Sony multiscan video printer UP-930). The filter combination used for detection of porphyrin fluorescence consisted of 390-440 nm excitation filter, a 460 nm beam splitter and a >600 nm emission filter.
# II. […] The fluorescence intensity of the porphyrins increased with the time after the application.
# [3] = system: basal cell carcinoma (BCC) lesions and surrounding normal skin; assay: PpIX fluorescence in human BCC and surrounding normal skin by optical-fiber based system; format: in vivo
# Experimental: The PpIX fluorescence in the BCC lesions and surrounding normal skin of human patients was measured in situ by optical-fiber based system after topical application of 20% free ALA and its derivatives for various time intervals.
# The PpIX fluorescence ratios between BCC lesions and surrounding normal skin after topical application of ALA or its esters (20% for 4 hours), was examined using methods described in previous examples.
# [4] = system: BCC lesions and adjacent normal skin; assay: In vivo surface fluorescence of tumor tissue and adjacent normal skin by spectrofluorometer; parameters: species or system human; details: after 24 hours, surface measurement
# Experimental: In a person presenting multiple ulcero-nodular BCCs lesions were exposed to commercial oil-in-water creams containing either ALA alone (20 k w/w) or ALA methyl ester (20% w/w) (as described in Example 7) covered by a semi-permeable dressing for 24 hours. After removal of dressings and cream in vivo fluorescence was measured at the surface of tumor tissue and adjacent normal skin by means of a spectrofluorometer. Punch biopsies of the same areas were removed and samples were immediately immersed in liquid nitrogen. The tissue sections were cut with a cryostat microtome to a thickness of 8 μm. The localization pattern of the porphyrin fluorescence in the tissue sections was directly observed by means of fluorescence microscopy. The same frozen sections were subsequently stained with routine H&E staining for histological identification.
# [5] = system: BCC lesions and surrounding normal skin; assay: PpIX production in human BCC and surrounding normal skin by CCD microscopy of biopsies; format: in vivo
# Experimental: […] After removal of dressings and cream in vivo fluorescence was measured at the surface of tumor tissue and adjacent normal skin by means of a spectrofluorometer. Punch biopsies of the same areas were removed and samples were immediately immersed in liquid nitrogen. The tissue sections were cut with a cryostat microtome to a thickness of 8 μm. The localization pattern of the porphyrin fluorescence in the tissue sections was directly observed by means of fluorescence microscopy. The same frozen sections were subsequently stained with routine H&E staining for histological identification.
# The same sections were subsequently stained with routine H&E staining for histological identification. Fluorescence microscopy was carried out with an Axioplan microscope (Zeiss, Germany). Fluorescence images and quantitative measurements were performed by a light-sensitive thermol-electrically cooled charge coupled device (CCD) camera (Astromed CCD 3200, Cambridge, UK) and an image processing unit (Astromed/Visilog, PC 486DX2 66 MHz VL). The main purpose for such quantitative measurements is to determine the exact penetration of ALA-induced porphyrins from tissue surface to the bottom layers of cancer lesions. The results are shown in FIGS. 8 and 9 in which the fluorescence intensity is expressed as a function of depth of cancer lesion.
# The tests were performed as described in Example 11.
# Each of the following figures show both (A) fluorescence images of either the bottom layer of BCC lesions or of the surrounding normal skin. Curves indicating the fluorescence intensity as a function of depth of the BCC lesions or of the normal skin are also shown (B).
# [6] = system: BCC lesions and adjacent normal skin; assay: Control one week after treatment (cream and light irradiation) of BCC patient; format: in vivo, human
# [7] = system: WiDr human colonic carcinoma; assay: PDT effect on tumor growth in WiDr human colonic carcinoma-transplanted nude mice; format: in vivo; details: with DF and DMSO
# Experimental: Nude mice were transplanted with WiDr human colonic carcinoma cells by subcutaneous injection into the right flank region. […] The responses of the treated tumors were evaluated as tumor regression/regrowth time. When the tumors reached a volume 5 times that of the volume on the day of light irradiation, the mice were killed. (Bars: standard error of mean (SEM) based on 3-5 individual animals in each group).
# normal skin of nude mice [8] = assay: In situ measurement of PpIX fluorescence in the skin of mice by an optical-fiber-based system; format: in vivo; details: intraperitoneal injection, 150 mg/kg
# [9] = topical application for 4.5 hours
# [10] = topical application for 24 hours
structure (smiles),measurement,setting,value
"COC(=O)CCC(=O)CN.Cl [ALA methylester, methyl 5-aminolevulinate hydrochloride]",time after topical application at which conversion into protoporphyrin IX (PpIX) is seen,[1]; normal skin of nu/nu nude mice,0.5 h
same,time of maximum PpIX fluorescence after application,"[1]; topical, 6 hours was the latest time point studied",about 6 hours
same,localization of porphyrin fluorescence in mouse skin,normal skin of nude mice [2],"fluorescence in the epidermis (Ep), epithelial hair follicles and sebaceous gland (arrows), but not in the dermis (De)"
same,PpIX fluorescence ratios between BCC lesions and surrounding normal skin (selectivity) compared with free ALA,"[3]; 20% for 4 hours, topical",more selectively induce PpIX in BCC lesions than free ALA
same,"PpIX build-up, amount and localization in BCC lesions compared to free ALA","[3]; 20% topical, various time intervals, human patients","built up faster, produced more and localized more selectively in the BCC lesions"
same,in vivo fluorescence intensity in tumors compared to ALA,[4],at least doubled fluorescence intensity
same,increase of in vivo fluorescence in corresponding normal tissues compared to ALA,[4],about 50%
same,PpIX fluorescence in the surrounding normal skin,"[5]; 20% w/w cream, 24 hours",no PpIX fluorescence was seen in the surrounding normal skin
same,distribution of PpIX fluorescence from top to bottom of BCC lesions,"[5]; 20% w/w cream, 24 hours, patient",homogeneous distribution of PpIX fluorescence
same,distribution of porphyrin fluorescence in the bottom layer of BCC,[5]; [9],homogenous distribution
same,fluorescence intensity ratio between BCC and normal skin,[5]; [9],about 2
same,"porphyrin fluorescence/production in BCC, ALA methyl ester versus free ALA and 20% DMSO",[5]; [9],higher than that induced by free ALA and 20% DMSO
same,distribution of porphyrin fluorescence in the bottom layer of BCC and surrounding normal skin,[5]; [10],uniform distribution
same,fluorescence intensity ratio between BCC and normal skin,[5]; [10],about 2
same,"porphyrin fluorescence/production in BCC, ALA methyl ester versus free ALA alone",[5]; [10],almost twice as high
same,erythema in adjacent normal skin exposed to cream and light irradiation,[6],only moderate erythema
same,tumor response in treatment fields,[6],central necrotic area corresponding to the tumor
same,slowing of tumor regrowth compared with ALA,[7],more effective than ALA in slowing tumor regrowth
same,decrease of skin fluorescence compared with free ALA,normal skin of nude mice [8],the fluorescence decreased faster in the case of the ester than in the case of the free ALA
same,time at which PpIX fluorescence disappeared post injection,normal skin of nude mice [8],≤ 10 h
same,time at which PpIX fluorescence in the skin was built up after injection,normal skin of nude mice [8],15 min
same,time of peak PpIX fluorescence in the skin after injection,normal skin of nude mice [8],around 4 hours
